Results reported in PubChem BioAssay (NCI).
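Assay format: 96-well plates, 48-hour exposure. GI50: concentration for 50% inhibition of growth. TGI denotes the concentration required for complete inhibition of growth.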

Columns and labels:
Test in all cases: DTP human tumour cell line panel, 48 h
[1] = test system: LOX IMVI melanoma
[2] = test system: TK-10 renal
[3] = test system: CCRF-CEM leukemia
[4] = test system: OVCAR-4 ovarian
[5] = test system: SF-539 CNS
[6] = test system: SNB-19 CNS
[7] = test system: COLO 205 colon
[8] = test system: M19-MEL melanoma
[9] = test system: NCI-H460 lung
[10] = test system: CAKI-1 renal
[11] = test system: SN12C renal
[12] = test system: U251 CNS
[13] = test system: NCI-H23 lung
[14] = test system: SW-620 colon
[15] = test system: NCI-H522 lung
[16] = test system: IGROV1 ovarian
[17] = test system: EKVX NSCLC
[18] = test system: RXF-631 renal
[19] = test system: SK-MEL-28 melanoma
[20] = test system: SF-268 CNS
[21] = test system: RPMI-8226 leukemia
[22] = test system: K-562 leukemia
[23] = test system: HOP-62 NSCLC
[24] = test system: OVCAR-5 ovarian
[25] = test system: SF-295 CNS
[26] = test system: KM20L2 colon
[27] = test system: RXF 393 renal
[28] = test system: A549 NSCLC
[29] = test system: KM12 colon
[30] = test system: SK-MEL-5 melanoma
[31] = test system: HCT-116 colon
[32] = test system: DLD-1 colon
[33] = test system: M14 melanoma
[34] = test system: LXFL 529 NSCLC
[35] = test system: UO-31 renal
[36] = test system: SK-OV-3 ovarian
[37] = test system: SK-MEL-2 melanoma
[38] = test system: DMS 114 small cell lung
[39] = test system: UACC-62 melanoma
[40] = test system: 786-0 renal
[41] = test system: A498 renal
[42] = test system: HOP-92 NSCLC
[43] = test system: MALME-3M melanoma
[44] = test system: OVCAR-8 ovarian
[45] = test system: ACHN renal
[46] = test system: HL-60(TB) leukemia
[47] = test system: MOLT-4 leukemia
[48] = test system: HCC-2998 colon
[49] = test system: HT29 colon
[50] = test system: NCI-H226 lung
[51] = test system: UACC-257 melanoma
[52] = test system: DMS 273 small cell lung
[53] = test system: SNB-78 CNS
[54] = test system: SR leukemia
[55] = test system: HCT-15 colon
[56] = test system: SNB-75 CNS

Work on `CC(C)(c1ccccc1)c1ccc(Oc2ccc(C#N)c(C#N)c2)cc1` yielded a GI50 [1] of over 100 µM, a TGI [1] of over 100 µM and a GI50 [2] of over 100 µM. It also gave a TGI [2] of over 100 µM, a TGI [3] of over 100 µM and a TGI [4] of over 100 µM. The GI50 [5] was over 100 µM, the TGI [5] was over 100 µM and the TGI [6] was over 100 µM. It also gave a GI50 [7] of over 100 µM, a TGI [7] of over 100 µM and a TGI [8] of over 100 µM. For the same compound, the GI50 [9] was over 100 µM, the TGI [9] was over 100 µM and the GI50 [10] was over 100 µM. For the same compound, the TGI [10] was over 100 µM, the GI50 [11] was over 100 µM and the TGI [11] was over 100 µM. For the same compound, the TGI [12] was over 100 µM, the TGI [13] was over 100 µM and the TGI [14] was over 100 µM. It also gave a GI50 [15] of 16.9 µM, a TGI [15] of 84.8 µM and a GI50 [16] of over 100 µM. The TGI [16] was over 100 µM, the TGI [17] was over 100 µM and the GI50 [18] was over 100 µM. It also gave a TGI [18] of over 100 µM, a GI50 [19] of over 100 µM and a TGI [19] of over 100 µM. It also gave a TGI [20] of over 100 µM, a TGI [21] of over 100 µM and a TGI [22] of over 100 µM. For the same compound, the GI50 [23] was over 100 µM, the TGI [23] was over 100 µM and the GI50 [24] was over 100 µM. It also gave a TGI [24] of over 100 µM, a TGI [25] of over 100 µM and a GI50 [26] of over 100 µM. For the same compound, the TGI [26] was over 100 µM, the TGI [27] was over 100 µM and the TGI [28] was over 100 µM. The GI50 [29] was over 100 µM, the TGI [29] was over 100 µM and the TGI [30] was over 100 µM. It also gave a TGI [31] of over 100 µM, a GI50 [32] of over 100 µM and a TGI [32] of over 100 µM. The TGI [33] was over 100 µM, the TGI [34] was over 100 µM and the TGI [35] was 40.5 µM. For the same compound, the GI50 [36] was over 100 µM, the TGI [36] was over 100 µM and the GI50 [37] was over 100 µM. The TGI [37] was over 100 µM, the TGI [38] was over 100 µM and the GI50 [39] was over 100 µM. For the same compound, the TGI [39] was over 100 µM, the GI50 [40] was over 100 µM and the TGI [40] was over 100 µM. For the same compound, the GI50 [41] was over 100 µM, the TGI [41] was over 100 µM and the TGI [42] was over 100 µM. It also gave a GI50 [43] of over 100 µM, a TGI [43] of over 100 µM and a GI50 [44] of over 100 µM. It also gave a TGI [44] of over 100 µM, a TGI [45] of over 100 µM and a TGI [46] of over 100 µM. It also gave a TGI [47] of over 100 µM, a GI50 [48] of over 100 µM and a TGI [48] of over 100 µM.
In the case of `CCCCCCCCC/C=C1\CCC(CN(C)C)C1=O` (stereo not given), the TGI [1] is reported as 2.59 µM, the TGI [2] is reported as 4.53 µM and the TGI [3] is reported as 4.82 µM. It also gave a TGI [49] of 3.16 µM, a TGI [5] of 3.18 µM and a TGI [6] of 18.1 µM. The TGI [7] was 5.37 µM, the TGI [8] was 3.87 µM and the TGI [9] was 12.5 µM. It also gave a TGI [50] of 23.9 µM, a TGI [10] of 4.99 µM and a TGI [11] of 4.34 µM. The TGI [12] was 3.02 µM, the TGI [51] was 3.52 µM and the TGI [13] was 5.61 µM. It also gave a TGI [14] of 3.08 µM, a TGI [15] of 4.78 µM and a TGI [16] of 6.53 µM. For the same compound, the TGI [17] was 4.81 µM, the TGI [18] was 4.53 µM and the TGI [19] was 4.28 µM. The TGI [20] was 3.71 µM, the TGI [22] was 7.53 µM and the TGI [23] was 4.32 µM. For the same compound, the TGI [24] was 28 µM, the TGI [25] was 12.7 µM and the TGI [52] was 3.25 µM. It also gave a TGI [53] of 5.03 µM, a TGI [26] of 4.66 µM and a TGI [28] of 18 µM. The TGI [29] was 3.84 µM, the TGI [54] was 6.77 µM and the TGI [30] was 3.9 µM. For the same compound, the TGI [31] was 3.67 µM, the TGI [55] was 4.66 µM and the TGI [32] was 4.28 µM. It also gave a TGI [33] of 3.57 µM, a TGI [34] of 2.64 µM and a TGI [35] of 4.04 µM. For the same compound, the TGI [36] was 32 µM, the TGI [37] was 6.42 µM and the TGI [38] was 4.87 µM. It also gave a TGI [39] of 5.73 µM, a TGI [40] of 0.963 µM and a TGI [41] of 6.4 µM. It also gave a TGI [42] of 4.39 µM, a TGI [56] of 6.28 µM and a TGI [43] of 12.6 µM. For the same compound, the TGI [44] was 3.11 µM, the TGI [45] was 4.98 µM and the TGI [46] was 5.31 µM. The TGI [47] was 8.49 µM and the TGI [48] was 10.5 µM.
